Measured values: patent publication US8791102B2, “Acetanilide sphingosine-1-phosphate receptor antagonists” (Exelixis, Inc., priority 2008, dated 2014)

Target: T1, human S1P1 receptors (Homo sapiens, UniProt P21453)
T1 construct: host or cells: HEK293
Experiment: S1P1R antagonist assay (fluorescent membrane potential dye, cAMP readout)
Assay type: cell-based
Settings: HEK293 cells expressing human S1P1 receptors and CNG channel; 500 nM NECA; S1P1R agonist 10 nM; 90 minutes; read-out: EC50 or IC50 value

T1 sequence (P21453 whole entry): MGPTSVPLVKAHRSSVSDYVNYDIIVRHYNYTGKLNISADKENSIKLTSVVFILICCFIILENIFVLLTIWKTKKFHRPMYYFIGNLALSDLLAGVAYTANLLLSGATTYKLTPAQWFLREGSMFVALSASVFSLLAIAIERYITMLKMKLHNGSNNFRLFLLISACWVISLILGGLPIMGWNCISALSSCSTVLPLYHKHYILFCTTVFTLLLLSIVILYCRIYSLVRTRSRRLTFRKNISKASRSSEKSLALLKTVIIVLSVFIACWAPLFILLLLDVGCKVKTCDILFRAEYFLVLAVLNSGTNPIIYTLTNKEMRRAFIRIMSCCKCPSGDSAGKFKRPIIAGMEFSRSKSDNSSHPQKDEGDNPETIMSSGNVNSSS

| IC50 [nM] | Structure (SMILES) |
| --- | --- |
| > 1000 | CC(=O)OCC(=O)NC(COCc1ccccc1)C(=O)Nc1ccc(Oc2ccccc2)cc1 (stereo not shown) [Compound 388, 2-oxo-2-[(2-oxo-1-{[(phenylmethyl)oxy]methyl}-2-{[4-(phenyloxy)phenyl]amino}ethyl)amino]ethyl acetate] |
| > 1000 | O=C(Cc1ccc(Br)cc1)NC(COCc1ccccc1)C(=O)Nc1ccc(Oc2ccccc2)cc1 (stereo not shown) [Compound 390, N-(2-oxo-1-{[(phenylmethyl)oxy]methyl}-2-{[4-(phenyloxy)phenyl]amino}ethyl)-2-(4-bromophenyl)acetamide] |
| > 1000 | O=C(Cc1ccccc1Cl)NC(COCc1ccccc1)C(=O)Nc1ccc(Oc2ccccc2)cc1 (stereo not shown) [Compound 391, N-(2-oxo-1-{[(phenylmethyl)oxy]methyl}-2-{[4-(phenyloxy)phenyl]amino}ethyl)-2-(2-chlorophenyl)acetamide] |
| > 1000 | Cc1ccc(OCC(=O)NC(COCc2ccccc2)C(=O)Nc2ccc(Oc3ccccc3)cc2)cc1 (stereo not shown) [Compound 393, N-(2-oxo-1-{[(phenylmethyl)oxy]methyl}-2-{[4-(phenyloxy)phenyl]amino}ethyl)-2-(p-tolyloxy)acetamide] |
| > 1000 | COc1ccccc1CCC(=O)NC(COCc1ccccc1)C(=O)Nc1ccc(Oc2ccccc2)cc1 (stereo not shown) [Compound 394, N-(2-oxo-1-{[(phenylmethyl)oxy]methyl}-2-{[4-(phenyloxy)phenyl]amino}ethyl)-3-(2-methoxyphenyl)propanamide] |
| > 1000 | CC(=O)c1ccc(C(=O)NC(COCc2ccccc2)C(=O)Nc2ccc(Oc3ccccc3)cc2)cc1 (stereo not shown) [Compound 396, 4-acetyl-N-(2-oxo-1-{[(phenylmethyl)oxy]methyl}-2-{[4-(phenyloxy)phenyl]amino}ethyl)benzamide] |
| 300 to 1000 | COC(=O)c1ccc(C(=O)NC(COCc2ccccc2)C(=O)Nc2ccc(Oc3ccccc3)cc2)cc1 (stereo not shown) [Compound 397, methyl 4-{[(2-oxo-1-{[(phenylmethyl)oxy]methyl}-2-{[4-(phenyloxy)phenyl]amino}ethyl)amino]carbonyl}benzoate] |
| > 1000 | O=C(NC(COCc1ccccc1)C(=O)Nc1ccc(Oc2ccccc2)cc1)c1ccc(OC(F)F)cc1 (stereo not shown) [Compound 399, 4-[(difluoromethyl)oxy]-N-(2-oxo-1-{[(phenylmethyl)oxy]methyl}-2-{[4-(phenyloxy)phenyl]amino}ethyl)benzamide] |
| > 1000 | Cc1ccc(C(=O)NC(COCc2ccccc2)C(=O)Nc2ccc(Oc3ccccc3)cc2)cc1F (stereo not shown) [Compound 400, 3-fluoro-4-methyl-N-(2-oxo-1-{[(phenylmethyl)oxy]methyl}-2-{[4-(phenyloxy)phenyl]amino}ethyl)benzamide] |
| > 1000 | Cc1ccoc1C(=O)NC(COCc1ccccc1)C(=O)Nc1ccc(Oc2ccccc2)cc1 (stereo not shown) [Compound 401, 3-methyl-N-(2-oxo-1{[(phenylmethyl)oxy]methyl}-2-{[4-(phenyloxy)phenyl]amino}ethyl)furan-2-carboxamide] |
| 300 to 1000 | O=C(CCc1cccs1)NC(COCc1ccccc1)C(=O)Nc1ccc(Oc2ccccc2)cc1 (stereo not shown) [Compound 403, N-(2-oxo-1-{[(phenylmethyl)oxy]methyl}-2-{[4-(phenyloxy)phenyl]amino}ethyl)-3-(thiophen-2-yl)propanamide] |

More lines, now with the values behind:

| Structure (SMILES) | IC50 [nM] |
| --- | --- |
| CCC(C)CC(=O)NC(COCc1ccccc1)C(=O)Nc1ccc(Oc2ccccc2)cc1 (stereo not shown) [Compound 385, 3-methyl-N-(2-oxo-1-{[(phenylmethyl)oxy]methyl}-2-{[4-(phenyloxy)phenyl]amino}ethyl)pentanamide] | > 1000 |
| O=C(NC(COCc1ccccc1)C(=O)Nc1ccc(Oc2ccccc2)cc1)c1cc2ccccc2[nH]1 (stereo not shown) [Compound 386, N-(2-oxo-1-{[(phenylmethyl)oxy]methyl}-2-{[4-(phenyloxy)phenyl]amino}ethyl)-1H-indole-2-carboxamide] | > 1000 |
| O=C(NC(COCc1ccccc1)C(=O)Nc1ccc(Oc2ccccc2)cc1)c1ccc(Cl)cc1F (stereo not shown) [Compound 387, 4-chloro-2-fluoro-N-(2-oxo-1-{[(phenylmethyl)oxy]methyl}-2-{[4-(phenyloxy)phenyl]amino}ethyl)benzamide] | > 1000 |
| O=C(NC(COCc1ccccc1)C(=O)Nc1ccc(Oc2ccccc2)cc1)c1ccsc1 (stereo not shown) [Compound 389, N-(2-oxo-1-{[(phenylmethyl)oxy]methyl}-2-{[4-(phenyloxy)phenyl]amino}ethyl)thiophene-3-carboxamide] | 300 to 1000 |
| COc1cc(CC(=O)NC(COCc2ccccc2)C(=O)Nc2ccc(Oc3ccccc3)cc2)cc(OC)c1OC (stereo not shown) [Compound 392, N-(2-oxo-1-{[(phenylmethyl)oxy]methyl}-2-{[4-(phenyloxy)phenyl]amino}ethyl)-2-(3,4,5-trimethoxyphenyl)acetamide] | 300 to 1000 |
| O=C(NC(COCc1ccccc1)C(=O)Nc1ccc(Oc2ccccc2)cc1)c1nc2ccccc2nc1O (stereo not shown) [Compound 395, 3-hydroxy-N-(2-oxo-1-{[(phenylmethyl)oxy]methyl}-2-{[4-(phenyloxy)phenyl]amino}ethyl)quinoxaline-2-carboxamide] | > 1000 |
| O=C(NC(COCc1ccccc1)C(=O)Nc1ccc(Oc2ccccc2)cc1)c1cc(F)cc(C(F)(F)F)c1 (stereo not shown) [Compound 398, 3-fluoro-N-(2-oxo-1-{[(phenylmethyl)oxy]methyl}-2-{[4-(phenyloxy)phenyl]amino}ethyl)-5-(trifluoromethyl)benzamide] | > 1000 |
| O=C(NC(COCc1ccccc1)C(=O)Nc1ccc(Oc2ccccc2)cc1)C1CCC1 (stereo not shown) [Compound 402, N-(2-oxo-1-{[(phenylmethyl)oxy]methyl}-2-{[4-(phenyloxy)phenyl]amino}ethyl)cyclobutanecarboxamide] | > 1000 |
